The text below walks through data of paper PMC8371461 (Frontiers in Pharmacology, 2021).

One data set concerns the target T1, AMPK-alpha1 (Homo sapiens, UniProt Q13131).
T1 construct: purchased DiscoverX (KINOMEscan)
Put plainly: kinome scan. Format: binding. To be noted: 10 µM.

The target of a further data set is T2, CSNK1G3 (Homo sapiens, UniProt Q9Y6M4).
T2 construct: purchased DiscoverX (KINOMEscan)
The experiment in a line: kinome scan. Format: binding.

The target in another data set is T3, CSNK2A1 (Homo sapiens, UniProt P68400).
T3 construct: purchased DiscoverX (KINOMEscan)
T3 sequence (P68400 whole entry): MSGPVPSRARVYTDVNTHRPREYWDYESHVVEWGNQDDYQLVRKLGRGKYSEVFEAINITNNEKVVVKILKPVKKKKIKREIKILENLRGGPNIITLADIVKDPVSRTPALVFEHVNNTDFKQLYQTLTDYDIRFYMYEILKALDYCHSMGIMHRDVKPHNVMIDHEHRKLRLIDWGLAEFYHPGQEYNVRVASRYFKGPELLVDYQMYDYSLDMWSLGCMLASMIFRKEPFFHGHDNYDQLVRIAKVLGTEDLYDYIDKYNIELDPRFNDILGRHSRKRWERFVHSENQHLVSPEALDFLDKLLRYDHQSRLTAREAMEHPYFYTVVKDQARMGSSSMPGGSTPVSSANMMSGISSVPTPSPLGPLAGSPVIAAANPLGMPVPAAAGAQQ
Put plainly: kinome scan. Format: binding. To be noted: 10 µM.

The target of the next data set is T4, EPHA8 (Homo sapiens, UniProt P29322).
T4 construct: purchased DiscoverX (KINOMEscan)
The experiment in a line: kinome scan. The data set is classed as binding. To be noted: 10 µM.

A further data set addresses T5, ERK4 (Homo sapiens, UniProt P31152).
T5 construct: purchased DiscoverX (KINOMEscan)
Put plainly: kinome scan. The data set is classed as binding. The settings on record: 10 µM.

In the next data set the target is T6, IKK-beta (Homo sapiens, UniProt O14920).
T6 construct: purchased DiscoverX (KINOMEscan)
The experiment in a line: kinome scan. Format: binding. To be noted: 10 µM.

A further data set concerns the target T7, LIMK1 (Homo sapiens, UniProt P53667).
T7 construct: purchased DiscoverX (KINOMEscan)
The experiment in a line: kinome scan. The data set is classed as binding. To be noted: 10 µM.

In the next data set the target is T8, LOK (Homo sapiens, UniProt O94804).
T8 construct: purchased DiscoverX (KINOMEscan)
T8 sequence (O94804 whole entry): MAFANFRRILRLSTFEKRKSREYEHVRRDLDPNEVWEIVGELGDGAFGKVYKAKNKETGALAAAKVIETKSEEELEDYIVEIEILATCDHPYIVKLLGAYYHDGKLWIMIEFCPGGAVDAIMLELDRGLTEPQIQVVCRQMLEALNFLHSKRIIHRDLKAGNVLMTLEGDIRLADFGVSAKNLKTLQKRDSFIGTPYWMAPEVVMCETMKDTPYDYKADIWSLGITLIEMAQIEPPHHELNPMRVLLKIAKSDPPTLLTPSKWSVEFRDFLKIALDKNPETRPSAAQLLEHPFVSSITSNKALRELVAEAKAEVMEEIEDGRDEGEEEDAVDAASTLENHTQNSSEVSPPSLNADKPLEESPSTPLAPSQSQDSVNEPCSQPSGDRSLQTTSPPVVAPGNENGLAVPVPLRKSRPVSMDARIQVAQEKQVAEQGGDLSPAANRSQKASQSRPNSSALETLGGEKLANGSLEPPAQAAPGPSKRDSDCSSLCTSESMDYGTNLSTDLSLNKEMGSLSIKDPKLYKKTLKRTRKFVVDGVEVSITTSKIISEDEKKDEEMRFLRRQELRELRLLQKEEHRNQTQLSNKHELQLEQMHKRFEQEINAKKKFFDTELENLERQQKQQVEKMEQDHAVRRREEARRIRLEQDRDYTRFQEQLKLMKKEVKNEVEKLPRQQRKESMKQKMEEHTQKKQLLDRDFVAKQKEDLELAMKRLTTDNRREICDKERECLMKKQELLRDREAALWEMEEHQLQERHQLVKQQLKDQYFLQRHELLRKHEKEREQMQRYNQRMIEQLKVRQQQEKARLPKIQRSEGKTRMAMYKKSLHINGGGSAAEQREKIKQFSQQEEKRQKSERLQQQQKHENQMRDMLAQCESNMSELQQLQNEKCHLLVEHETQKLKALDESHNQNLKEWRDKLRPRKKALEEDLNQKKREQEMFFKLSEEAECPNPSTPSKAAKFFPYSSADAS
Put plainly: kinome scan. The data set is classed as binding. The settings on record: 10 µM.

In the next data set the target is T9, CDC2L5 (Homo sapiens, UniProt Q14004).
T9 construct: purchased DiscoverX (KINOMEscan)
The experiment in a line: kinome scan. The data set is classed as binding. The settings on record: 10 µM. How it is done:
(§1) The kinome scan analysis was performed using the DiscoverX platform (www.discoverx.com). Briefly, T7 kinase-tagged phage strains are grown in parallel in 24-well or 96-well blocks in a BL21-derived E. coli host for 90 min until lysis. Lysates are centrifuged at 6,000 x g and filtered with a 0.2 µm filter to remove cell debris. Streptavidin-coated magnetic beads are treated with biotinylated kinase ligands for 30 min at room temperature to generate the affinity resin. Bound beads are blocked with excess biotin and washed with blocking buffer (SeaBlock (Pierce), 1% BSA, 0.05% Tween 20, and 1 mM DTT) to remove unbound ligand and reduce nonspecific phage binding. […] The final concentration of test compound is 10 µM. Assay plates are incubated at room temperature with shaking for 1 h. Affinity beads are treated four times with washing buffer (1X PBS, 0.05% Tween 20, and 1 mM DTT) to remove unbound phage. […] Q RT PCR is used to measure the amount of phage in each eluate (which is proportional to the amount of kinase bound). Data is presented as the percentage of kinase bound by 10 µM of the ligand compared to the DMSO only as a control.
(§2) Hits are identified by an ultra-sensitive quantitative PCR detecting the specific DNA tag linked to each kinase (Supplementary Figure S2). The drug is used at a concentration of 10 µM and results are expressed as the percentage of signal (kinase PCR detection) with respect to DMSO control conditions. Thirteen hits were identified, with a signal reduction ranging from 0 to 27% (Table 3). Full raw data are presented in Supplementary Table S4. Interactions between 0 and 20% of reduction were considered to be the most significant ones. […] A sub-micromolar affinity (Kd<1 µM) was only seen with two PIKs (PIP4K2C, PI4KB) and GAK (Table 4). Inhibitions curves from these compounds are shown in Supplementary Figure S3.

A further data set has as its target T10, PFCDPK1(P.falciparum) (Plasmodium falciparum, UniProt P62344).
T10 construct: purchased DiscoverX (KINOMEscan)
Put plainly: kinome scan. The data set is classed as binding. The settings on record: 10 µM. As to the method: as §1, §2

For another data set, the target named is T11, PFPK5(P.falciparum) (Plasmodium falciparum, UniProt P61075).
T11 construct: purchased DiscoverX (KINOMEscan)
T11 sequence (P61075 whole entry): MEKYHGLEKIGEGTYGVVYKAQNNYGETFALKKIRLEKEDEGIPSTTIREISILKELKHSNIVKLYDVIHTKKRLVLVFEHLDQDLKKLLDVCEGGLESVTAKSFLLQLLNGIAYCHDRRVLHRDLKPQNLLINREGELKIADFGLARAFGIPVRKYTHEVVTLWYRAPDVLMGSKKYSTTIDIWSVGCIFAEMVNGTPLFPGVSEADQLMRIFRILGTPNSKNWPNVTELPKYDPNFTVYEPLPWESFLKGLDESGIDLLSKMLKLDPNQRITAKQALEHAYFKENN
Put plainly: kinome scan. Format: binding. To be noted: 10 µM. How it is done: as §1, §2

The next data set addresses T12, PRP4 (Homo sapiens, UniProt Q13523).
T12 construct: purchased DiscoverX (KINOMEscan)
Put plainly: kinome scan. The settings on record: 10 µM. The data set is classed as binding. How it is done: as §1, §2

For the next data set, the target named is T13, PIK3CA(E542K) (Homo sapiens, UniProt P42336, E542K).
T13 construct: purchased DiscoverX (KINOMEscan)
Put plainly: kinome scan. The data set is classed as binding. To be noted: 10 µM.

Another data set deals with T14, PRKCH (Homo sapiens, UniProt P24723).
T14 construct: purchased DiscoverX (KINOMEscan)
T14 sequence (P24723 whole entry): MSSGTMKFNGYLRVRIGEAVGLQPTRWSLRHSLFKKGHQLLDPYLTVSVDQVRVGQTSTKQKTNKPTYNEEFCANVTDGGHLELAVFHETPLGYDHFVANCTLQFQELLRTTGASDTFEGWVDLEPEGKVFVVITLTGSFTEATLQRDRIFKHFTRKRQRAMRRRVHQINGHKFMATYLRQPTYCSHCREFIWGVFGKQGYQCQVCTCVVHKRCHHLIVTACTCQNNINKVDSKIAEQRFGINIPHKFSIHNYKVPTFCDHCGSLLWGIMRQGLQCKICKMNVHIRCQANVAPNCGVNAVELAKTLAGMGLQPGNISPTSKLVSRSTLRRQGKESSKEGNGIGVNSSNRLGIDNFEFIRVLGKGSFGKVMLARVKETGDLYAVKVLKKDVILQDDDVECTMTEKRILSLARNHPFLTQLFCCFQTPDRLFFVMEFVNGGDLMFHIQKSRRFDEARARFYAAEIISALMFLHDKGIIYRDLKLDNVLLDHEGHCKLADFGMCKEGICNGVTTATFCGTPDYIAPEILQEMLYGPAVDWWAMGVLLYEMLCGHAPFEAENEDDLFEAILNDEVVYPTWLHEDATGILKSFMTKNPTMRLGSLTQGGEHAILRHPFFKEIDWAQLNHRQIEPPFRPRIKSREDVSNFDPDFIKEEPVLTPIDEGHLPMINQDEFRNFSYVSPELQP
The experiment in a line: kinome scan. Format: binding. To be noted: 10 µM.

Data set [1] has as its target T15, RSK3(Kin.Dom.2-C-terminal) (Homo sapiens, UniProt Q15349).
T15 construct: RSK3(Kin.Dom.2-C-terminal); purchased DiscoverX (KINOMEscan)
Put plainly: kinome scan. The data set is classed as binding. To be noted: 10 µM.

The target of a further data set is T16, SRPK2 (Homo sapiens, UniProt P78362).
T16 construct: purchased DiscoverX (KINOMEscan)
Put plainly: kinome scan. The data set is classed as binding. The settings on record: 10 µM.

The target in a further data set is T17, SYK (Homo sapiens, UniProt P43405).
T17 construct: purchased DiscoverX (KINOMEscan)
Put plainly: kinome scan. The settings on record: 10 µM. The data set is classed as binding.

A further data set deals with T18, TNK2 (Homo sapiens, UniProt Q07912).
T18 construct: purchased DiscoverX (KINOMEscan)
T18 sequence (Q07912 whole entry): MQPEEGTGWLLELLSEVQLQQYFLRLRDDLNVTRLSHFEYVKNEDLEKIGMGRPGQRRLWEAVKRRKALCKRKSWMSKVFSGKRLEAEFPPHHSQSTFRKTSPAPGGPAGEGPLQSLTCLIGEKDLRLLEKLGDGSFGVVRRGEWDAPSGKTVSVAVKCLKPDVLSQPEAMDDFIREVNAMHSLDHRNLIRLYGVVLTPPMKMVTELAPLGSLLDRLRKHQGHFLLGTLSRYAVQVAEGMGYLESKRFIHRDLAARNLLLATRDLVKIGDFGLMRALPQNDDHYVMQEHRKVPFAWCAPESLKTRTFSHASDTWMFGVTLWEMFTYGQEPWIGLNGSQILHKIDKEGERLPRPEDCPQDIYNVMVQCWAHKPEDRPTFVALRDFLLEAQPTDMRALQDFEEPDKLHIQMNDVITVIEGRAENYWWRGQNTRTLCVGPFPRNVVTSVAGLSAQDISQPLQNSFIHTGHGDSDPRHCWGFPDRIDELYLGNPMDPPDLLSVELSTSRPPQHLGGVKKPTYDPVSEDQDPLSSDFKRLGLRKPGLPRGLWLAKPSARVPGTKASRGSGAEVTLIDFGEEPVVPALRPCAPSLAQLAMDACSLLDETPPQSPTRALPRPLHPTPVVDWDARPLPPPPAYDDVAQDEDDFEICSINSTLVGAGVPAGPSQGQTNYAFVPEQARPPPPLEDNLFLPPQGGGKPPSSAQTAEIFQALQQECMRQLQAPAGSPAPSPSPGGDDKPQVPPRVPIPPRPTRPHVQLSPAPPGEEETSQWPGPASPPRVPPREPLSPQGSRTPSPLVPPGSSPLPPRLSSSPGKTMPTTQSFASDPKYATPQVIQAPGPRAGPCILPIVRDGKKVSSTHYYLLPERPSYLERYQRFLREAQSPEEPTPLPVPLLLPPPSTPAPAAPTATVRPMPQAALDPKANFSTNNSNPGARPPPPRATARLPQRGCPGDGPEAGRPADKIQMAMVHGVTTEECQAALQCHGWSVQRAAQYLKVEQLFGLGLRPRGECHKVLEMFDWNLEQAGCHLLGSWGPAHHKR
The experiment in a line: kinome scan. To be noted: 10 µM. The data set is classed as binding.

The target of another data set is T19, TSSK1B (Homo sapiens, UniProt Q9BXA7).
T19 construct: purchased DiscoverX (KINOMEscan)
T19 sequence (Q9BXA7 whole entry): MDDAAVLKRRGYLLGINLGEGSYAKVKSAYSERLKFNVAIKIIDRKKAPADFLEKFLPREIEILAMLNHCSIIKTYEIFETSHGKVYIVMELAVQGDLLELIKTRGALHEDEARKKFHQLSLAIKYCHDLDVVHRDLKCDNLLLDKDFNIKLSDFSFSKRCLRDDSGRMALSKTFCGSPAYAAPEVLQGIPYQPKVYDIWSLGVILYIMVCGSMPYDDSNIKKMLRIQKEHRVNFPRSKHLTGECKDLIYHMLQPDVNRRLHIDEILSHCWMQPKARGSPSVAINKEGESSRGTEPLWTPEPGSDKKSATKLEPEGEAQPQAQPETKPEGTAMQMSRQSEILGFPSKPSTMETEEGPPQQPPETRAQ
The experiment in a line: kinome scan. The data set is classed as binding. The settings on record: 10 µM.

Another data set has as its target T20, DYRK2 (Homo sapiens, UniProt Q92630).
T20 construct: purchased DiscoverX (KINOMEscan)
T20 sequence (Q92630 1-601): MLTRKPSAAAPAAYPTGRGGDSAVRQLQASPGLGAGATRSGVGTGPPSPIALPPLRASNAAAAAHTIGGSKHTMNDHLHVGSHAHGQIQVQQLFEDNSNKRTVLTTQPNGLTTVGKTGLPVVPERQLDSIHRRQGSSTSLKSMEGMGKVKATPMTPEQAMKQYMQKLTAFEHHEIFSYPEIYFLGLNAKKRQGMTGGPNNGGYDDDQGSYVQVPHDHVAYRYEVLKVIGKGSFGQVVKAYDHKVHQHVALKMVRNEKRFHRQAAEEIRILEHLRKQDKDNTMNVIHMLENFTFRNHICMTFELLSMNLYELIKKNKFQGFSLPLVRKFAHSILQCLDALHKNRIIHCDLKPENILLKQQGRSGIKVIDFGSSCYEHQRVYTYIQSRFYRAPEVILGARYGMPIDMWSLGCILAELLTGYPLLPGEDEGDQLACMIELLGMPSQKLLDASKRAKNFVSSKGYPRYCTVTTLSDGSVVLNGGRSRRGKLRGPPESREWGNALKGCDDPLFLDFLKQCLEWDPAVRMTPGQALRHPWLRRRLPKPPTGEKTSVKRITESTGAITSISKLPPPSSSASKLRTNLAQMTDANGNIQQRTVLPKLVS
Put plainly: Kd select analysis (DiscoverX). The data set is classed as binding. As to the method: as §2

The test system of a further data set is Cruzain. Details: method as in CHEMBL1613769. The settings on record: reported activity, data mining; ref CHEMBL1613769; cited from earlier work.
Data set [2] concerns Pregnane X receptor (PXR) signaling pathway. Details: method as in CHEMBL3215112. The settings on record: reported activity, data mining; ref CHEMBL3215112; cited from earlier work.
Data set [3] relates to Euchromatic histone-lysine N-methyltransferase 2. Details: method as in PubChem Bioassay ID 504,332. The settings on record: reported activity, data mining; ref PubChem Bioassay ID 504,332; cited from earlier work.

T2 sequence (Q9Y6M4 whole entry): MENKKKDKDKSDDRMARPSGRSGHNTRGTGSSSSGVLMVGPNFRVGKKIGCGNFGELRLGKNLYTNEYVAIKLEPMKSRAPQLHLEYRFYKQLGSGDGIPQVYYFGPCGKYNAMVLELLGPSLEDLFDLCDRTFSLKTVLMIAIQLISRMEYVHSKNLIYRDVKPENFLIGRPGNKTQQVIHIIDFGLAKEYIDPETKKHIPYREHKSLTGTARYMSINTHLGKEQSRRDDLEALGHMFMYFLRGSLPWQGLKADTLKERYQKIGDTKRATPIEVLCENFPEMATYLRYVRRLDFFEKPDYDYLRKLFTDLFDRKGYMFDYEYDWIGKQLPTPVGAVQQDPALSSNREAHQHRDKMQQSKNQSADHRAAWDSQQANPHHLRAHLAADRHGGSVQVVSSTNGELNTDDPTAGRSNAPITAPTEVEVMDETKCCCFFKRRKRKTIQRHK
T15 sequence (Q15349 415-672 limits assumed): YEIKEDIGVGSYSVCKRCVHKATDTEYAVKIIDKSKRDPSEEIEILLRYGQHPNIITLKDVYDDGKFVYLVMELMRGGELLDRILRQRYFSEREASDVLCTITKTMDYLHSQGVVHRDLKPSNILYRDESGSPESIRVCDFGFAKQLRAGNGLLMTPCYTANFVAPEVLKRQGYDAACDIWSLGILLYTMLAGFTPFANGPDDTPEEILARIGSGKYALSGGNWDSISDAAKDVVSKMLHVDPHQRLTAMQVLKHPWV
T1 sequence (Q13131 whole entry): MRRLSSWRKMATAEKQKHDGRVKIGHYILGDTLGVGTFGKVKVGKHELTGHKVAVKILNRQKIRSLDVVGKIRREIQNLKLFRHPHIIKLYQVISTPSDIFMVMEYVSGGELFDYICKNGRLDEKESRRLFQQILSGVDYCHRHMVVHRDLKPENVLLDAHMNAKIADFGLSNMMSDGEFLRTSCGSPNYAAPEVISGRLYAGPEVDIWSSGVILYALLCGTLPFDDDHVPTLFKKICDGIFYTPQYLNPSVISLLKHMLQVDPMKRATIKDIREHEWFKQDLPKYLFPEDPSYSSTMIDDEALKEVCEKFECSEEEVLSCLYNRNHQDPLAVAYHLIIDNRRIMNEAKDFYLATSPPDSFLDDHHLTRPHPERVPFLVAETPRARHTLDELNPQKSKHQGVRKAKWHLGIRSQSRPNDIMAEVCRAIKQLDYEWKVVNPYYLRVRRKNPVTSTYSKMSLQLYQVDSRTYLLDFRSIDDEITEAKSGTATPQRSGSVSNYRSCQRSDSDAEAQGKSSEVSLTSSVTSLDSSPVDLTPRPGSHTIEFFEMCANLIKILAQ

As for `Nc1ccc(N=Nc2ccccc2)c(N)n1` [phenazopyridine, 2,6-diamino-3-(phenylazo)pyridine], the kinase inhibition at AMPK-alpha1 was determined as 99; at CSNK1G3 (CSNK1G3, 10 µM) it was 100; on CSNK2A1, 86; on EPHA8 it was 86; at ERK4 it was 74; on IKK-beta, 89. In addition, the kinase inhibition at LIMK1 is given as 100; on LOK, 100; on CDC2L5, 100; at PFCDPK1(P.falciparum), 100; at PFPK5(P.falciparum), 89; at PIK3CA(E542K), 98. For the same compound, the kinase inhibition at PRKCH is listed as 78; in [1], 100; on SRPK2 it was 100; at SYK it was 100; at TNK2 it was 100; on TSSK1B, 87. The remaining binding at 10 µM on CSNK1G3 (Casein kinase 1 isoform γ 3 (CK1), read-out: Kinome scan (% of control at 10 µM)) amounted to 44%. The “kinase bound, % of DMSO control” value on PRP4 came out at 100. The Kd – broadly, the constant that tells how readily two partners part at equilibrium – at DYRK2 amounted to 5 µM. Besides, the Concentration was 20 µM in the data set with Cruzain, 7.9 µM in data set [2] and 10 µM in data set [3].
